From patent US4477443A, “Tylosin derivatives, their preparation and pharmaceutical compositions containing them” (Zaidan Hojin Biselbutsu Kagaku Kenkyu Kai (Microbial …, priority 1981, dated 1984)
Converted amounts (≈) assume the structure as drawn. Read-outs that look alike come from different tables or passages of the source.

Tests used:
Assay in all cases: antimicrobial activity (MIC), Table I
Type in all cases: cell-based
Staph. aureus 193 = settings: Staphylococcus aureus
Staph. aureus 209 P = settings: Staphylococcus aureus
Staph. aureus MS 9861 = settings: Staphylococcus aureus, MS9861
Sarcina lutea PCI 1001 = settings: Micrococcus luteus, PCI1001
B. subtilis NRRL B-558 = settings: Bacillus subtilis, NRRLB558
Coryn. bovis 1810 = settings: Corynebacterium bovis
E. coli NIHJ = settings: Escherichia coli
E. coli K-12 = settings: Escherichia coli, K12
E. coli K-12 R-5 = settings: Escherichia coli, K12R5
Kleb. pneumoniae PCI 602 = settings: Klebsiella pneumoniae, PCI602
[1] = system: Shigella dysenteriae JS 11910; settings: JS11910
Sal. enteritidis 1891 = settings: Salmonella enterica
[2] = Staph. aureus 193, read-out: MIC
[3] = Staph. aureus 209 P, read-out: MIC
[4] = Staph. aureus MS 9861, read-out: MIC
[5] = Sarcina lutea PCI 1001, read-out: MIC
[6] = B. subtilis NRRL B-558, read-out: MIC
[7] = Coryn. bovis 1810, read-out: MIC
[8] = E. coli K-12 R-5, read-out: MIC
[9] = Kleb. pneumoniae PCI 602, read-out: MIC
[10] = Sal. enteritidis 1891, read-out: MIC

SMILES | MIC (Staph. aureus 193; [2]) [µg/mL] | MIC (Staph. aureus 209 P; [3]) [µg/mL] | MIC (Staph. aureus MS 9861; [4]) [µg/mL] | MIC (Sarcina lutea PCI 1001; [5]) [µg/mL] | MIC (B. subtilis NRRL B-558; [6]) [µg/mL] | MIC (Coryn. bovis 1810; [7]) [µg/mL] | MIC (E. coli NIHJ; E. coli NIHJ, read-out: MIC) [µg/mL] | MIC (E. coli K-12; E. coli K-12, read-out: MIC) [µg/mL] | MIC (E. coli K-12 R-5; [8]) [µg/mL] | MIC (Kleb. pneumoniae PCI 602; [9]) [µg/mL] | MIC [1] [µg/mL] | MIC (Sal. enteritidis 1891; [10]) [µg/mL] | also measured
CCC1OC(=O)CC(O)C(C)C(OC2OC(C)C(O)C(N(C)C)C2O)C(CC=O)CC(C)C(=O)C=CC(C)=CC1CN(C)C1CCCCC1 (stereo not drawn) [Example 27, 23-deoxy-23-(N-methylcyclohexylamino)mycaminosyl tylonolide] | 0.78 (≈ 1.13 µM) | < 0.2 | 3.12 (≈ 4.5 µM) | < 0.2 | < 0.2 | < 0.2 | 0.78 (≈ 1.13 µM) | 3.12 (≈ 4.5 µM) | 3.12 (≈ 4.5 µM) | < 0.2 | < 0.2 | < 0.2 | 
CCC1OC(=O)CC(O)C(C)C(OC2OC(C)C(O)C(N(C)C)C2O)C(CC=O)CC(C)C(=O)C=CC(C)=CC1CN(C)CCc1ccccc1 (stereo not drawn) [Example 26, 23-deoxy-23-(N-methylphenethylamino)mycaminosyl tylonolide] | 0.2 (≈ 0.28 µM) | < 0.2 | 12.5 (≈ 17.5 µM) | < 0.2 | 50 (≈ 69.9 µM) | < 0.2 | 3.12 (≈ 4.36 µM) | 12.5 (≈ 17.5 µM) | 12.5 (≈ 17.5 µM) | 0.78 (≈ 1.09 µM) | 3.12 (≈ 4.36 µM) | 3.12 (≈ 4.36 µM) | 
CCC1OC(=O)CC(O)C(C)C(OC2OC(C)CC(N(C)C)C2O)C(CC=O)CC(C)C(=O)C=CC(C)=CC1CNC(=O)c1ccccc1 (stereo not drawn) [Example 76, 23-Benzoylamino-23,4'-dideoxymycaminosyl tylonolide] | 0.39 (≈ 0.569 µM) | 0.39 (≈ 0.569 µM) | 0.78 (≈ 1.14 µM) | < 0.2 | 0.78 (≈ 1.14 µM) | < 0.2 | 3.12 (≈ 4.56 µM) | 6.25 (≈ 9.13 µM) | 6.25 (≈ 9.13 µM) | 3.12 (≈ 4.56 µM) | 1.56 (≈ 2.28 µM) | 3.12 (≈ 4.56 µM) | 
CCC1OC(=O)CC(O)C(C)C(OC2OC(C)CC(N(C)C)C2O)C(CC=O)CC(C)C(=O)C=CC(C)=CC1CN1CCN(C)CC1 (stereo not drawn) [Example 32, 23,4'-dideoxy-23-(4-methylpiperazin-1-yl)mycaminosyl tylonolide] | 1.56 (≈ 2.35 µM) | 0.78 (≈ 1.17 µM) | 6.25 (≈ 9.41 µM) | < 0.2 | 1.56 (≈ 2.35 µM) | 6.25 (≈ 9.41 µM) | 3.12 (≈ 4.7 µM) | 25 (≈ 37.7 µM) | 6.25 (≈ 9.41 µM) | 25 (≈ 37.7 µM) | 0.2 (≈ 0.301 µM) | 6.25 (≈ 9.41 µM) | 
CCC1OC(=O)CC(O)C(C)C(OC2OC(C)CC(N(C)C)C2O)C(CC=O)CC(C)C(=O)C=CC(C)=CC1CN1CCC(=O)CC1 (stereo not drawn) [Example 28, 23,4'-dideoxy-23-(4-pipridone)mycaminosyl tylonolide] | < 0.2 | < 0.2 | 0.39 (≈ 0.588 µM) | < 0.2 | < 0.2 | 0.39 (≈ 0.588 µM) | 3.12 (≈ 4.71 µM) | 6.25 (≈ 9.43 µM) | 6.25 (≈ 9.43 µM) | 1.56 (≈ 2.35 µM) | 0.78 (≈ 1.18 µM) | 6.25 (≈ 9.43 µM) | 
CCC1OC(=O)CC(O)C(C)C(OC2OC(C)C(O)C(N(C)C)C2O)C(CC=O)CC(C)C(=O)C=CC(C)=CC1CN(C)Cc1ccccc1 (stereo not drawn) [Example 25, 23-deoxy-23-(N-methylbenzylamino)mycaminosyl tylonolide] | 0.2 (≈ 0.285 µM) | < 0.2 | 0.2 (≈ 0.285 µM) | 0.39 (≈ 0.556 µM) | 3.12 (≈ 4.45 µM) | < 0.2 | 1.56 (≈ 2.23 µM) | 3.12 (≈ 4.45 µM) | 6.25 (≈ 8.92 µM) | 0.39 (≈ 0.556 µM) | 3.12 (≈ 4.45 µM) | 1.56 (≈ 2.23 µM) | 
CCOC(=O)NCC1C=C(C)C=CC(=O)C(C)CC(CC=O)C(OC2OC(C)CC(N(C)C)C2O)C(C)C(O)CC(=O)OC1CC (stereo not drawn) [Example 78, 23,4'-Dideoxy-23-ethoxycarbonylaminomycaminosyl tylonolide] | < 0.2 | < 0.2 | 0.39 (≈ 0.597 µM) | < 0.2 | 0.39 (≈ 0.597 µM) | < 0.2 | 3.12 (≈ 4.78 µM) | 12.5 (≈ 19.1 µM) | 6.25 (≈ 9.57 µM) | 3.12 (≈ 4.78 µM) | 1.56 (≈ 2.39 µM) | 3.12 (≈ 4.78 µM) | 
CCC1OC(=O)CC(O)C(C)C(OC2OC(C)CC(N(C)C)C2O)C(CC=O)CC(C)C(=O)C=CC(C)=CC1CN1CCCCC1CO (stereo not drawn) [Example 31, 23,4'-dideoxy-23-[2-(hydroxymethyl)piperidino]mycaminosyl tylonolide] | 0.39 (≈ 0.574 µM) | < 0.2 | 0.39 (≈ 0.574 µM) | < 0.2 | 0.39 (≈ 0.574 µM) | 0.39 (≈ 0.574 µM) | 0.39 (≈ 0.574 µM) | 0.78 (≈ 1.15 µM) | 0.78 (≈ 1.15 µM) | 0.78 (≈ 1.15 µM) | 0.78 (≈ 1.15 µM) | 0.39 (≈ 0.574 µM) | 
CCC1OC(=O)CC(O)C(C)C(OC2OC(C)CC(N(C)C)C2O)C(CC=O)CC(C)C(=O)C=CC(C)=CC1CN(CC)C(=O)Oc1ccccc1 (stereo not drawn) [Example 85, 23,4'-Dideoxy-23-N-ethylphenoxycarbonylaminomycaminosyl tylonolide] |  |  |  |  |  |  |  |  |  |  | 0.78 (≈ 1.07 µM) |  | MIC (Staph. aureus 193; 193): 0.39 µg/mL (≈ 0.535 µM); MIC (Staph. aureus 209 P; 209P): < 0.2 µg/mL; MIC (Staph. aureus MS 9861): 0.39 µg/mL (≈ 0.535 µM); MIC (Sarcina lutea PCI 1001): < 0.2 µg/mL; MIC (B. subtilis NRRL B-558): < 0.2 µg/mL; MIC (Coryn. bovis 1810; 1810): < 0.2 µg/mL; MIC (E. coli NIHJ): 12.5 µg/mL (≈ 17.1 µM); MIC (E. coli K-12): 12.5 µg/mL (≈ 17.1 µM); MIC (E. coli K-12 R-5): 12.5 µg/mL (≈ 17.1 µM); MIC (Kleb. pneumoniae PCI 602): 3.12 µg/mL (≈ 4.28 µM); MIC (Sal. enteritidis 1891; ENTERITIDIS): 12.5 µg/mL (≈ 17.1 µM)
CCC1OC(=O)CC(O)C(C)C(OC2OC(C)CC(N(C)C)C2O)C(CC=O)CC(C)C(=O)C=CC(C)=CC1CN1CCOCC1 (stereo not drawn) [Example 29, 23,4'-dideoxy-23-morpholinomycaminosyl tylonolide] | 0.39 (≈ 0.599 µM) | 0.39 (≈ 0.599 µM) | 0.78 (≈ 1.2 µM) | < 0.2 | 0.39 (≈ 0.599 µM) | < 0.2 | 3.12 (≈ 4.79 µM) | 25 (≈ 38.4 µM) | 12.5 (≈ 19.2 µM) | 3.12 (≈ 4.79 µM) | 0.39 (≈ 0.599 µM) | 12.5 (≈ 19.2 µM) | 
CCC1OC(=O)CC(O)C(C)C(OC2OC(C)CC(N(C)C)C2O)C(CC=O)CC(C)C(=O)C=CC(C)=CC1CNC(=O)Oc1ccccc1 (stereo not drawn) [Example 80, 23,4'-Dideoxy-23-phenoxycarbonylaminomycaminosyl tylonolide] |  |  |  |  |  |  |  |  |  |  | 0.78 (≈ 1.11 µM) |  | MIC (Staph. aureus 193; 193): < 0.2 µg/mL; MIC (Staph. aureus 209 P; 209P): < 0.2 µg/mL; MIC (Staph. aureus MS 9861): < 0.2 µg/mL; MIC (Sarcina lutea PCI 1001): < 0.2 µg/mL; MIC (B. subtilis NRRL B-558): 0.39 µg/mL (≈ 0.556 µM); MIC (Coryn. bovis 1810; 1810): < 0.2 µg/mL; MIC (E. coli NIHJ): 3.12 µg/mL (≈ 4.45 µM); MIC (E. coli K-12): 6.25 µg/mL (≈ 8.92 µM); MIC (E. coli K-12 R-5): 6.25 µg/mL (≈ 8.92 µM); MIC (Kleb. pneumoniae PCI 602): 1.56 µg/mL (≈ 2.23 µM); MIC (Sal. enteritidis 1891; ENTERITIDIS): 1.56 µg/mL (≈ 2.23 µM)
CCC1OC(=O)CC(O)C(C)C(OC2OC(C)CC(N(C)C)C2O)C(CC=O)CC(C)C(=O)C=CC(C)=CC1CN(CC)C(=O)OC (stereo not drawn) [Example 83, 23,4'-Dideoxy-23-N-ethylmethoxycarbonylaminomycaminosyl tylonolide] | < 0.2 | < 0.2 | 0.39 (≈ 0.585 µM) | < 0.2 | < 0.2 | < 0.2 | 6.25 (≈ 9.37 µM) | 12.5 (≈ 18.7 µM) | 12.5 (≈ 18.7 µM) | 12.5 (≈ 18.7 µM) | 1.56 (≈ 2.34 µM) | 6.25 (≈ 9.37 µM) | 
